Measured values: the supplement of paper PMC10331698
± gives the standard deviation of the averaged measurements.

How the values were obtained:
Assay in all cases: level (log10 ratio to DMSO vehicle control); higher = higher biomarker level / cell amount than vehicle control
[1] = compound: O=C(O)C(F)(F)OC(F)(F)C(F)(F)OC(F)(F)C(F)(F)OC(F)(F)C(F)(F)C(F)(F)C(F)(F)F [Perfluoro-3,6,9-trioxatridecanoic acid] (in DMSO); details: 6700 nM
Protocol: (§1)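 BioMAP Diversity Plus panel of 12 human primary cell co-culture systems (3C, 4H, LPS, SAg, BT, BF4T, BE3C, CASM3C, HDF3CGF, KF3CT, MyoF, Mphg). Compounds were added 1 h before stimulation and left for 24 h (MyoF 48 h; BT 72 h for soluble read-outs or 6 d for IgG). Biomarkers were read by ELISA, cytotoxicity by SRB, PBMC viability and proliferation by Alamar Blue. Each well value was divided by the mean of 8 DMSO control wells on the same plate and log10 transformed; duplicate blinded samples were tested at 4 concentrations.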

Perfluoroundecanoic acid = compound: O=C(O)C(F)(F)C(F)(F)C(F)(F)C(F)(F)C(F)(F)C(F)(F)C(F)(F)C(F)(F)C(F)(F)C(F)(F)F [Perfluoroundecanoic acid] (in DMSO); details: 6700 nM
Protocol: as §1

[2] = compound: C=C(C)C(=O)OCCC(F)(F)C(F)(F)C(F)(F)C(F)(F)C(F)(F)C(F)(F)C(F)(F)C(F)(F)F [8:2 Fluorotelomer methacrylate] (in DMSO)
Protocol: as §1

[3] = compound: OCCC(F)(F)C(F)(F)C(F)(F)C(F)(F)F [4:2 Fluorotelomer alcohol] (in DMSO)
Protocol: as §1

[4] = compound: O=C(O)C=C(C(F)(F)F)C(F)(F)F [3,3-Bis(trifluoromethyl)-2-propenoic acid] (in DMSO)
Protocol: as §1

[5] = compound: O=C(O)C(F)(F)C(F)(F)C(F)(F)OC(F)(F)F [Perfluoro(4-methoxybutanoic) acid] (in DMSO)
Protocol: as §1

[6] = compound: O=S(=O)(O)C(F)(F)C(F)(F)OC(F)(F)C(F)(F)F [Perfluoro(2-ethoxyethane)sulfonic acid] (in DMSO)
Protocol: as §1

[7] = compound: OCC(F)(F)C(F)(F)C(F)(F)C(F)F [1H,1H,5H-Perfluoropentanol] (in DMSO)
Protocol: as §1

Test System	level (log10) [1]	level (log10) (Perfluoroundecanoic acid)	level (log10) ([2]; 6700 nM)	level (log10) ([2]; 20000 nM)	level (log10) ([3]; 6700 nM)	level (log10) ([3]; 20000 nM)	level (log10) ([3]; 60000 nM)	level (log10) ([4]; 6700 nM)	level (log10) ([4]; 20000 nM)	level (log10) ([4]; 60000 nM)	level (log10) ([5]; 6700 nM)	level (log10) ([5]; 20000 nM)	level (log10) ([5]; 60000 nM)	level (log10) ([6]; 6700 nM)	level (log10) ([6]; 20000 nM)	level (log10) ([6]; 60000 nM)	level (log10) ([7]; 6700 nM)	level (log10) ([7]; 20000 nM)	level (log10) ([7]; 60000 nM)
BE3C:CD87/uPAR	-0.48 ± 0.05	0.138 ± 0.019	-0.0135 ± 0.023	0.0015 ± 0.036	0.005 ± 0.0099	-0.0025 ± 0.0064	0.0145 ± 0.0021	-0.0365 ± 0.025	-0.0635 ± 0.013	-0.012 ± 0.013	0.0145 ± 0.011	-0.0195 ± 0.019	0.002 ± 0.0099	-0.014 ± 0.035	0.012 ± 0.014	0.0075 ± 0.0021	-0.012 ± 0.0085	-0.01 ± 0.0071	0 ± 0.027
BE3C:CXCL8/IL-8	-0.259 ± 0.0014	-0.113	-0.002 ± 0.014	-0.008 ± 0.0028	-0.001 ± 0.0085	-0.006 ± 0.0014	0.043 ± 0.04	-0.016 ± 0.0042	-0.026 ± 0.0085	-0.0075 ± 0.04	0.0325 ± 0.028	0.0325 ± 0.016	0.0655 ± 0.042	0.0135 ± 0.016	0.008 ± 0.038	0.04 ± 0.0028	-0.0065 ± 0.077	0.0185 ± 0.12	0.0875 ± 0.12
BE3C:CXCL9/MIG	-1.19 ± 0.017	-0.0125 ± 0.0064	-0.01 ± 0.014	-0.0095 ± 0.022	-0.0055 ± 0.016	0.0065 ± 0.0078	0.0025 ± 0.0021	-0.007 ± 0.014	-0.007 ± 0.0057	0.005 ± 0.023	0.0005 ± 0.013	-0.006 ± 0.016	-0.0005 ± 0.00071	0.002 ± 0.0042	-0.0145 ± 0.012	-0.0055 ± 0.0035	-0.0075 ± 0.012	0.0135 ± 0.0092	0.013 ± 0.018
BE3C:CXCL10/IP-10	-1.1 ± 0.023	-0.4655 ± 0.0021	-0.0005 ± 0.018	-0.0105 ± 0.028	-0.009 ± 0.021	0.002 ± 0.016	-0.0015 ± 0.0035	-0.022 ± 0.027	-0.0195 ± 0.026	-0.0295 ± 0.00071	-0.0045 ± 0.0078	-0.001 ± 0.0085	0.0045 ± 0.0035	-0.008 ± 0.02	-0.024 ± 0.033	-0.01 ± 0.0071	-0.0015 ± 0.016	0.005 ± 0.017	0.0165 ± 0.042
BE3C:CXCL11/I-TAC	-0.992 ± 0.025	-0.114 ± 0.047	0.0215 ± 0.053	0.025 ± 0.078	0.004 ± 0.0014	0.0075 ± 0.0078	0.0155 ± 0.012	-0.0375 ± 0.0092	-0.033 ± 0.023	-0.019 ± 0.011	0.011 ± 0.018	0.008 ± 0.0085	0.0135 ± 0.0092	0.032 ± 0.0057	0.076 ± 0.0042	0.073 ± 0.0042	0.003 ± 0.017	0.0165 ± 0.028	0.0315 ± 0.046
BE3C:EGFR	-0.212 ± 0.022	-0.064 ± 0.0014	-0.007 ± 0.02	-0.01 ± 0.031	-0.0165 ± 0.022	-0.002 ± 0.018	0.0315 ± 0.011	-0.015 ± 0.014	-0.011 ± 0.0085	-0.0015 ± 0.012	0.016 ± 0.0071	0.0035 ± 0.015	0.009 ± 0.016	0 ± 0.0014	-0.019 ± 0.017	-0.004	-0.008 ± 0.0099	0.0105 ± 0.011	0.032 ± 0.065
BE3C:HLA-DR	-0.8695 ± 0.0078	-0.0815 ± 0.022	-0.004 ± 0.021	0.0085 ± 0.033	-0.0265 ± 0.052	-0.0075 ± 0.03	0.002 ± 0.0099	-0.0175 ± 0.0064	-0.0245 ± 0.011	-0.0355 ± 0.016	-0.0005 ± 0.019	0.007 ± 0.0071	0.021 ± 0.021	-0.0085 ± 0.033	-0.012 ± 0.014	-0.0335 ± 0.0092	-0.017 ± 0.011	-0.0095 ± 0.016	0.019 ± 0.023
BE3C:IL-1alpha	-0.469 ± 0.052	-0.069 ± 0.0042	-0.018 ± 0.02	-0.0005 ± 0.0078	-0.0425 ± 0.026	-0.0345 ± 0.016	-0.017 ± 0.0085	0.012 ± 0.02	0.0005 ± 0.0092	0.001 ± 0.023	-0.0045 ± 0.037	0.014 ± 0.0042	0.0245 ± 0.0021	0.0015 ± 0.0021	0.0045 ± 0.0035	0.0085 ± 0.005	-0.0275 ± 0.0064	-0.0155 ± 0.018	0.0035 ± 0.023
BF4T:CCL2/MCP-1	-0.155 ± 0.11	-0.009 ± 0.023	-0.0005 ± 0.028	-0.051 ± 0.031	0.0035 ± 0.073	-0.0015 ± 0.021	0.0275 ± 0.005	0.0005 ± 0.0021	-0.052 ± 0.031	-0.0635 ± 0.0064	0.031 ± 0.031	0.007 ± 0.054	0.035 ± 0.028	0.0155 ± 0.0064	0.0155 ± 0.0064	0.0315 ± 0.039	-0.0175 ± 0.036	0.0495 ± 0.023	0.0305 ± 0.074
BF4T:CCL26/Eotaxin-3	-0.395 ± 0.018	-0.212 ± 0.014	-0.02 ± 0.0099	-0.069 ± 0.013	-0.037 ± 0.068	0.016 ± 0.073	0.001 ± 0.082	-0.089 ± 0.03	-0.124 ± 0.0014	-0.126 ± 0.067	0.0195 ± 0.06	0.0005 ± 0.0035	0.0065 ± 0.0021	0.019 ± 0.0014	-0.0075 ± 0.00071	0.039 ± 0.038	0.0125 ± 0.059	0.0235 ± 0.005	0.049 ± 0.044
BF4T:CD54/ICAM-1	-0.0705 ± 0.019	-0.0175 ± 0.026	-0.023 ± 0.0099	0.001 ± 0.0099	-0.0055 ± 0.025	0.0135 ± 0.03	-0.003 ± 0.034	-0.0195 ± 0.005	-0.0205 ± 0.005	-0.0075 ± 0.013	-0.005 ± 0.024	-0.013 ± 0.027	-0.0005 ± 0.0035	-0.003 ± 0.0028	-0.0125 ± 0.0064	-0.008 ± 0.017	-0.0035 ± 0.019	0.01 ± 0.013	0.02 ± 0.021
BF4T:CD90	0.0045 ± 0.0021	-0.016 ± 0.0028	-0.0165 ± 0.015	0 ± 0.0099	-0.0285 ± 0.0078	-0.0085 ± 0.03	-0.0125 ± 0.0064	-0.0205 ± 0.011	-0.022 ± 0.0042	-0.0235 ± 0.019	-0.009 ± 0.011	-0.006 ± 0.0099	0 ± 0.0028	-0.01 ± 0.0085	-0.0185 ± 0.0092	-0.0185 ± 0.0021	-0.011 ± 0.0085	0.0005 ± 0.00071	0.003 ± 0.0057
BF4T:CD106/VCAM-1	-0.205 ± 0.067	-0.032 ± 0.041	-0.0225 ± 0.00071	-0.0495 ± 0.022	-0.049 ± 0.083	0.022 ± 0.062	0.0485 ± 0.083	-0.0755 ± 0.0064	-0.0945 ± 0.005	-0.047 ± 0.067	-0.005 ± 0.023	-0.012 ± 0.0071	-0.0015 ± 0.04	0.003 ± 0.0057	0.0045 ± 0.028	0.021 ± 0.055	-0.019 ± 0.085	0.0225 ± 0.029	0.021 ± 0.081
BF4T:CXCL8/IL-8	0.0165 ± 0.049	0.0815 ± 0.026	-0.026 ± 0.014	-0.023 ± 0.021	0.0235 ± 0.039	0.035 ± 0.0014	0.082 ± 0.0014	-0.0135 ± 0.022	-0.022 ± 0.0099	0.0345 ± 0.05	0.04 ± 0.069	0.014 ± 0.086	0.0245 ± 0.028	0.008 ± 0.0099	0.005 ± 0.024	0.0365 ± 0.011	0.037 ± 0.083	0.0505 ± 0.07	0.0685 ± 0.046
BF4T:IL-1alpha	-0.055 ± 0.013	-0.014 ± 0.023	-0.009 ± 0.0057	0.008 ± 0.016	-0.0245 ± 0.028	0.004 ± 0.0028	0.0055 ± 0.016	-0.009 ± 0.0057	-0.003 ± 0.0085	-0.0065 ± 0.035	0.007 ± 0.013	0.008 ± 0.028	-0.003 ± 0.023	-0.0065 ± 0.0078	-0.016 ± 0.0071	0.0165 ± 0.0092	-0.02 ± 0.0085	0.03 ± 0.044	0.0195 ± 0.018
